# Assay results published in article PMC6941823, “A dispensable paralog of succinate dehydrogenase subunit C mediates standing resistance towards a subclass of SDHI fungicides in Zymoseptoria tritici” (PLoS Pathogens, 2019).
# Molecular target: C_A84I-SQR (SDHC_A84I), IPO323_Flu21 mitochondria (Zymoseptoria tritici, UniProt F9X9V6+F9XH52+O42772, A84I)
# Assay: Succinate-quinone (SQR) SDHI sensitivity assay on purified mitochondria, IPO323_Flu21
# Assay type: biochemical
# Settings: mitochondria of UV mutant IPO323_Flu21; mean of three ± SD
# Procedure: Succinate-ubiquinone oxidoreductase (SQR) inhibition assays were performed on mitochondrial extracts from a panel of strains that were (i) either carrying a unique C-subunit encoding gene (ZtSDHC1, ZtSDHC1_A84I or Zt-SDHC3), or (ii) carrying two C-subunit encoding genes ZtSDHC1 and ZtSDHC3 (Table 1).
# Biomass production, mitochondrial extraction and purification were performed as described in [14]. Succinate: ubiquinone/DCPIP sensitivity tests were performed as described in [14] with minor modification. The different mitochondrial suspensions were adjusted to similar initial velocity (1 OD595nm hour^-1) and inhibitor concentrations ranged between 0.047nM and 50μM with uniform 4x dilution steps (11 concentrations + DMSO control). Calculated absorbance slopes (OD/min) were used for IC50 calculations using GraphPad Prism 6.07 software non-linear curve fitting against log inhibitor concentrations.
row,Structure (SMILES),IC50 [nM]
1,O=C(Nc1ccccc1-c1ccc(Cl)cc1)c1cccnc1Cl [Boscalid],62 ± 19.2
2,CC1=C(C(=O)Nc2ccccc2)SCCO1 [Carboxin],1150 ± 153
3,Cn1cc(C(=O)NCCc2ccc(Cl)cc2Cl)c(C(F)F)n1 [Compound 1],2570 ± 239
4,C[C@@H](Cc1ccc(Cl)cc1Cl)NC(=O)c1cn(C)nc1C(F)F [Compound 2],780 ± 157
5,CON(C(=O)c1cn(C)nc1C(F)F)[C@@H](C)Cc1ccc(Cl)cc1Cl [Compound 3],28 ± 7.3
6,O=C(NCCc1ncc(C(F)(F)F)cc1Cl)c1ccccc1C(F)(F)F [Fluopyram],1440 ± 354
7,Cc1cc(OC(C)C)ccc1C(=O)C(C)(C)NC(=O)c1sccc1C [Isofetamid],21400 ± 4550
8,CC(C)CC(C)c1sccc1NC(=O)c1cn(C)nc1C(F)(F)F (stereo not drawn) [Penthiopyrad],4.6 ± 1.7
9,CON(C(=O)c1cn(C)nc1C(F)F)[C@@H](C)Cc1c(Cl)cc(Cl)cc1Cl [Pydiflumetofen],2 ± 0.4
